Assay results taken from patent publication EP1323432A1, “Complexes of cyclodextrins with potassium ion homeostasis regulators” (priority 2001, dated 2003).

Key:
[1] = rat, in vivo
[2] = Undesirable effects: hypotension (pressure measured with flow meter); design: species or system rats; conditions: rat, in vivo
Protocol: Pressure measurements were made by means of a T206 dual-channel flow meter by Transonic System Inc (Ithaca, NY, USA). In the control animals not subjected to stress or pharmacological treatments, pressure was 91±7 mm Hg (N=56 rats). The pressure values of the animals in our test groups prior to the beginning of pharmacological treatment were between 85 mm Hg and 105 mm Hg. The pressures were measured in the morning, at rest, prior to administration. […] The observed variations remained constant to the end of the treatment. […] The pressure values used to plot the chart refer to the values from day 21 to day 30 of treatment (Chart 4). [formula]

[3] = system: animal models; conditions: doses of 1.5-5 mg/day, noncomplexed form; cited from earlier work
[4] = system: Wistar Kioto male rats; assay: Treadmill exercise: average duration of effort and recovery times after effort; assay type: in vivo; conditions: for average duration of the effort on the treadmill: after day 14 of treatment, oral by endogastric tube for 30 days; for average duration of the effort on the treadmill / Average recovery times after effort: versus placebo; for effort lasting (duration of the repeated effort on a treadmill) / rats able to sustain the effort on a treadmill already 30 minutes after suspending their exercise / time after which the remaining rats were able to repeat the effort: day 30; for effort lasting (duration of the repeated effort on a treadmill): effort repeated 30 minutes after end of exercise; for effort lasting (duration of the repeated effort on a treadmill) / time after which the remaining rats were able to repeat the effort: same doses as E4; for rats able to sustain the effort on a treadmill already 30 minutes after suspending their exercise: oral, complex 1 360 µg/kg/day, 0.4 mg/kg/day (complex 2 3 mg/kg/day), 6 mg/kg/day (complex 3 50 mg/kg/day); for time after which the remaining rats were able to repeat the effort: rats not able to repeat at 30 minutes; for Average recovery times after effort: day 30 of treatment
Protocol: (§1) Wistar Kioto male rats weighing 350 g were divided into nine groups of eight animals each (numbered 1 to 8 for each test group) and were treated with amounts of complex 1 equal to 20 µg/kg/day or 40 µg/kg/day of noncomplexed active ingredient, of complex 2 equal to 0.4 mg/kg/day of noncomplexed active ingredient and of complex 3 equal to 6 mg/kg/day of noncomplexed active ingredient, orally with an endogastric tube for 30 days, during which the animals were exercised and tested. The tested doses were the minimum ones required to restore blood K^+ levels after exercise. • Placebo group treated with physiological solution enriched with hydroxypropyl-β-cyclodextrin; • Group treated with 20 µg/kg/day of 6-[1-piperidinyl]pyrimidine-2,4-diamine-3-oxide; • Group treated with […]/day of 6-[1-piperidinyl]pyrimidine-2,4-diamine-3-oxide; • Group treated with 180 µg/kg/day of complex 1; • Group treated with 360 µg/kg/day of complex 1; • Group treated with 0.4 mg/kg/day of [±]-N-cyano-N-4-pyridinyl-N-[1,2,2-trimethylpropyl]-guanidine; • Group treated with 3 mg/kg/day of complex 2; • Group treated with 6 mg/kg/day of N-[5-sulfamoyl-1,3,4-thiadiazol-2-yl]acetamide; • Group treated with 50 mg/kg/day of complex 3.
(§2) Levels of venous plasma K^+ taken from the femoral vein before and after exercise were also measured once a week per rat in animals anesthetized with chloral hydrate at a dose of 0.5 g/kg.
Each test group was subjected to daily trials at an initial speed of 15 m/min. In the second week, the speed was increased to 25 m/min, in the third week it was raised to 35 m/min, and in the fourth week it was increased to 45 m/min. Administration was performed in the morning.
The treadmill was equipped with a sensor which was sensitive to the weight of the rat, set to a generated weight force of 60 g/30 sec, and inserted in the rear wall of the time measurement chamber.

[5] = system: venous plasma K^+; assay: Venous plasma K^+ levels before and after treadmill exercise; assay type: in vivo, Wistar Kioto male rats; conditions: 5 animals per group; up to 100 minutes after the end of the effort; complex 1 180 µg/kg/day, noncomplexed 20 µg/kg/day
[6] = system: venous plasma K^+; assay: as above; assay type: in vivo, Wistar Kioto male rats; conditions: for K^+ values 30 minutes after the end of the administration: 0.4 mg/kg/day (complex 2 3 mg/kg/day), 6 mg/kg/day (complex 3 50 mg/kg/day); for levels of K^+ of the animals that did not respond to treatment: up to 100 minutes after the end of the effort
Protocol: as §1, §2

[7] = system: patients affected by hypokalemias; conditions: guanidine 25 mg/day or more, acetamide 100 and 500 mg/day; cited from earlier work
[8] = animals that responded to treatment
[9] = animals that responded to treatment, same doses as E13

Compound	average rate increase (heart rate) [1] [%]	reduction in average pressure [2] [%]	effect on muscular weakness and muscular invalidity [3]	average duration of the effort on the treadmill [4]	effort lasting (duration of the repeated effort on a treadmill) [4] [min]	rats able to sustain the effort on a treadmill already 30 minutes after suspending their exercise [4]	time after which the remaining rats were able to repeat the effort [4] [min]	rats that responded to the treatment in terms of both functional and blood parameters ([4]; low dose: complex 1 180 µg/kg/day, noncomplexed 20 µg/kg/day)	Average recovery times after effort [4]	K^+ levels of the animals that did not respond to the treatment [5]	values of K^+ 30 minutes after the end of the effort [6] [mEq/l]	levels of venous K^+ after 100 minutes ([6]; after the end of the effort) [mEq/l]	values of K^+ after 60 minutes ([6]; after the end of the effort) [mEq/l]	effect on muscular weakness, paralysis attacks and symptoms [7]	K^+ values 30 minutes after the end of the administration [6, 8] [mEq/l]	K^+ values after 60 minutes [6, 9] [mEq/l]	levels of venous K^+ after 100 minutes [6, 9] [mEq/l]	levels of K^+ of the animals that did not respond to treatment ([6]; same doses as E13)
Nc1cc(N2CCCCC2)nc(N)[n+]1[O-] [6-[1-piperidinyl]pyrimidine-2,4-diamine-3-oxide]	10±2	8	capable of preventing muscular weakness and muscular invalidity	significantly longer	7.2 ± 1	6 rats out of 8	90	3 rats out of 8	reduced significantly	lower than 3 mEq/l	5.2±2	4.5±1	4.2±1	–	–	–	–	–
CC(=O)Nc1nnc(S(N)(=O)=O)s1 [N-[5-sulfamoyl-1,3,4-thiadiazol-2-yl]acetamide]	9±2	15	–	significantly longer	7 ± 2	4 rats out of 8	80	–	reduced significantly	–	–	–	–	useful in reducing symptoms and muscular invalidity caused by exercise	6.2±2	5.8±1	5.6±1	below 3 mEq/l
[±]-N-cyano-N-4-pyridinyl-N-[1,2,2-trimethylpropyl]-guanidine	14±2	13	–	significantly longer	7.4 ± 1	5 rats out of 8	70	–	reduced significantly	–	–	–	–	capable of reducing muscular weakness and the frequency of paralysis attacks	5.2±2	4.8±1	4.6±1	below 3 mEq/l
